Data as given in PMC9692552, “Activity and Synergy of Cu-ATCUN Antimicrobial Peptides” (International Journal of Molecular Sciences, 2022).
In brackets after ≈: the same amount, converted by molar mass. Several values for one entry are separate records, joined by “and”; a condition that tells them apart may be missing. Identical values can stand only once. Like-named read-outs stand apart in the source and are kept apart here. Ends that are not written are not given here. Peptide text beside a SMILES is read from it.

Columns and labels:
[1] = test system: E. coli 25922; format: cell-based, Escherichia coli
Method: (§1) The minimum inhibitory concentration of a peptide is the concentration at which no observable bacterial growth can be determined by visual inspection. MIC values are useful for determining the potential of a test article as a therapeutic, as well as in comparison to other test articles. A variety of antimicrobial peptides were tested for activity against an array of clinically relevant bacterial strains. The sequences of SMAP-29 derivatives and their key features can be seen in Table 1, with peptides being named in reference to how they were originally published. Peptides OV3-00 and OV3-01 were utilized in this study. Because the template (or parental) peptide, SMAP-29, derived from sheep leukocytes, is hemolytic to human red blood cells, efforts were made to enhance the therapeutic index of the peptide leading to the creation of OV and OV3 [14, 19]. Various derivatives were made and OV3 came to represent two distinct peptides in the literature: the peptide labeled OV3 and a peptide with an additional c-terminal YG, herein labeled OV3-00. Previous work in our laboratory utilized OV3 for the design and synthesis of ATCUN domain peptides, but it lacks a tryptophan or tyrosine residue that allows for more ready quantification of the peptide concentration by the extinction coefficient, leading to a less accurate, more difficult, concentration analysis by mass spectrometry. To ease quantification and facilitate studies on the OV3 series in our laboratory, and compare the effect of the added YG, additional work was pursued using the longer OV3-00 and OV3-01 derivatives.
(§2) Minimum inhibitory concentrations (MICs) of test molecules were established by broth dilution assays. Mid-log phase bacterial cultures of a variety of clinically important organisms were diluted and incubated with a serial dilution of each peptide, starting at 128 µM. The concentration of peptide at which no visible growth occurred was marked as the MIC. Bacterial strains were incubated in Mueller–Hinton Broth (MHB) at 37 degrees Celsius until the OD600 reached between 0.8 and 1. The resulting culture was subsequently diluted 100× into 96-well plates with the test articles. Positive and negative controls containing only MHB incubated with bacteria and MHB, respectively, were also included on the plate. Each 96-well plate was incubated for 16–20 h, and the MIC was determined by visual inspection. To determine the colony-forming units (CFUs) present in each assay, 100 µL of the 100× diluted culture was further diluted by 1000× and plated on agar plates and determined by use of Equation (1). The colonies were counted to ensure that the CFU value was between 10^4 and 10^5. CFU/mL = (mean # of colonies/0.1 mL) (1000 (dilution factor))(1)

[2] = test system: A. baumannii BAA747; format: cell-based, Acinetobacter baumannii
Method: as §1, §2

[3] = test system: K. pneumoniae 700603; format: cell-based
Method: as §1, §2

[4] = test system: S. aureus 43300 (MRSA); format: cell-based
Method: as §1, §2

[5] = test system: P. aeruginosa 27583; format: cell-based
Method: as §1, §2

[6] = test system: E. faecium 700221 (VRE); format: cell-based
Method: as §1, §2

[7] = test system: E. coli 25922; assay: FIC of peptide pairs (two-way dilution, 96-well plate); format: cell-based, Escherichia coli; conditions: single peptide on the FIC plate, initial screen, one value given
Method: Determining MIC values informed decisions on testing peptides in combination. Fractional inhibitory concentrations determine the ability of test articles to act in concert against a pathogen. FIC determination is experimentally similar to MIC determination, except one test article is diluted down the wells and another is diluted across the wells of the 96-well plate in order to test the synergism of two peptides. […] Synergy is defined as an FIC of less than or equal to 0.5, meaning there is a four-fold reduction in the concentration of each peptide required for inhibition. Any number above 4 indicates a deleterious interaction that reduces the effectiveness of each peptide, and a value between 0.5 and 1 can be considered additive (Equation (2)).
Fractional inhibitory concentrations (FICs) were determined in a manner similar to MIC determinations but with serial dilutions of two peptides running both horizontally and vertically across the 96-well plate. Determination of the FIC can be seen in Equation (2), where FIC is the fractional inhibitory concentration, [A] is the concentration of substrate A at MIC in combination, [B] is the concentration of substrate B at MIC in combination, and MICA and MICB are the MIC of substrate A and substrate B, respectively. FIC = fractional inhibitory concentration, [A] = concentration of A at MIC in combination, [B] = concentration of B at MIC in combination, MICA = minimum inhibitory concentration of A, and MICB = minimum inhibitory concentration of B. When FIC ≤ 0.5 the results are synergistic. If FIC > 4, the results are antagonistic, and when FIC > 0.5, the results are indifferent or additive. (2) FIC=[A]/MICA+ [B]/MICB

Compound: CC[C@H](C)[C@H](NC(=O)[C@H](CC(C)C)NC(=O)[C@H](C)NC(=O)[C@@H]1CCCN1C(=O)[C@H](CC(C)C)NC(=O)CNC(=O)[C@@H](NC(=O)[C@@H](NC(=O)[C@H](CC(C)C)NC(=O)[C@@H](NC(=O)[C@H](CCCCN)NC(=O)[C@H](CCCCN)NC(=O)[C@@H](NC(=O)[C@H](C)NC(=O)[C@@H](NC(=O)[C@@H](NC(=O)[C@H](CC(C)C)NC(=O)[C@H](CCCCN)NC(=O)[C@H](CCCCN)NC(=O)[C@@H](NC(=O)[C@H](Cc1ccccc1)NC(=O)[C@H](CO)NC(=O)[C@H](CCCCN)NC(=O)[C@H](Cc1c[nH]c2ccccc12)NC(=O)[C@H](CCCCN)NC(=O)[C@H](Cc1c[nH]cn1)NC(=O)CNC(=O)CN)[C@@H](C)CC)[C@@H](C)O)[C@@H](C)O)C(C)C)C(C)C)[C@@H](C)O)[C@@H](C)O)C(=O)N[C@@H](CO)C(N)=O [CP29-01]
- MIC ([1]; E. coli 25922, Gram (-), broth dilution in MHB, 37 °C, 16–20 h, visual inspection, dilution from 128 µM): 8 µM (≈ 25 µg/mL)
- MIC ([2]; A. baumannii BAA747, Gram (-), broth dilution in MHB, 37 °C, 16–20 h, visual inspection): 1 µM (≈ 3.12 µg/mL)
- MIC ([3]; K. pneumoniae 700603, Gram (-), broth dilution in MHB, 37 °C, 16–20 h, visual inspection): 8 µM (≈ 25 µg/mL)
- MIC ([4]; S. aureus 43300 (MRSA), Gram (+), broth dilution in MHB, 37 °C, 16–20 h, visual inspection): 16 µM (≈ 50 µg/mL)
- MIC ([5]; P. aeruginosa 27583, Gram (-), broth dilution in MHB, 37 °C, 16–20 h, visual inspection): 2 µM (≈ 6.25 µg/mL)
- MIC ([6]; E. faecium 700221 (VRE), Gram (+), broth dilution in MHB, 37 °C, 16–20 h, visual inspection): 4 µM (≈ 12.5 µg/mL)

Compound: NCC(=O)NCC(=O)N[C@@H](Cc1c[nH]cn1)C(N)=O [GGH] (H-Gly-Gly-His-NH2)
- MIC [1]; 25922: >128 µM
- MIC ([2]; BAA747): >128 µM
- MIC [3]; 700603: >128 µM
- MIC [4]; 43300: >128 µM
- MIC [5]; 27583: >128 µM
- MIC ([6]; 700221 (VRE)): >128 µM

Compound: CC[C@H](C)[C@H](NC(=O)[C@H](Cc1c[nH]cn1)NC(=O)CNC(=O)CN)C(=O)N[C@@H](CC(C)C)C(=O)N1CCC[C@H]1C(=O)N[C@@H](Cc1c[nH]c2ccccc12)C(=O)N[C@@H](CCCCN)C(=O)N[C@@H](Cc1c[nH]c2ccccc12)C(=O)N1CCC[C@H]1C(=O)N[C@@H](Cc1c[nH]c2ccccc12)C(=O)N[C@@H](Cc1c[nH]c2ccccc12)C(=O)N1CCC[C@H]1C(=O)N[C@@H](Cc1c[nH]c2ccccc12)C(=O)N[C@@H](CCCNC(=N)N)C(=O)N[C@@H](CCCNC(=N)N)C(=O)NCC(=O)NCC(=O)N[C@@H](CS)C(N)=O [IND-01]
- MIC [1]; 25922: 32 µM (≈ 76 µg/mL)
- MIC ([2]; BAA747): 32 µM (≈ 76 µg/mL)
- MIC [3]; 700603: >64 µM
- MIC [4]; 43300: 64 µM (≈ 152 µg/mL)
- MIC [5]; 27583: >64 µM
- MIC ([6]; 700221 (VRE)): 8 µM (≈ 19 µg/mL)

Compound: CC(C)C[C@H](NC(=O)[C@H](Cc1ccccc1)NC(=O)[C@@H]1CCCN1C(=O)[C@H](Cc1c[nH]c2ccccc12)NC(=O)[C@H](Cc1c[nH]c2ccccc12)NC(=O)[C@H](Cc1c[nH]c2ccccc12)NC(=O)[C@@H]1CCCN1C(=O)[C@H](Cc1ccccc1)NC(=O)[C@H](CCCNC(=N)N)NC(=O)[C@H](CCCNC(=N)N)NC(=O)[C@@H](N)C(C)C)C(=O)N[C@@H](CCCNC(=N)N)C(=O)N[C@@H](CCCNC(=N)N)C(N)=O [TRP, tritrpticin]
- MIC [1]; 25922: 8 µM (≈ 15.2 µg/mL)
- MIC ([2]; BAA747): 8 µM (≈ 15.2 µg/mL)
- MIC [3]; 700603: 32 µM (≈ 60.8 µg/mL)
- MIC [4]; 43300: 8 µM (≈ 15.2 µg/mL)
- MIC [5]; 27583: 16 µM (≈ 30.4 µg/mL)
- MIC ([6]; 700221 (VRE)): 2 µM (≈ 3.8 µg/mL)

Compound: FVQWFSKFLGRIL-NH2 [TempL]
- MIC [1]; 25922: 4 µM
- MIC ([2]; BAA747): 4 µM
- MIC [3]; 700603: 16 µM
- MIC [4]; 43300: 4 µM
- MIC [5]; 27583: 32 µM
- MIC ([6]; 700221 (VRE)): 8 µM

Compound: GGHGIGKFLHSAKKWGKAFVGEIMNS-NH2 [Mag2-01]
- MIC [1]; 25922: 16 µM
- MIC ([2]; BAA747): 8 µM
- MIC [3]; 700603: 64 µM
- MIC [4]; 43300: >128 µM
- MIC [5]; 27583: 64 µM
- MIC ([6]; 700221 (VRE)): 32 µM

Compound: GGHGVRRFPWWWPFLRR-NH2 [TRP-02, ATCUN derivative of tritrpticin]
- MICA/MICB, concentration with no growth when dosed separately [7]: 8 µM and 16 µM

Compound: GGHGVRRFPWWWPFLRRGGC-NH2 [TRP-03, ATCUN derivative of tritrpticin]
- MICA/MICB, concentration with no growth when dosed separately [7]: 16 µM

Compound: GGHIRRIIRKIIHIIKKYG-NH2 [OV3-01]
- MIC [1]; 25922: 4 µM
- MIC ([2]; BAA747): 8 µM
- MIC [3]; 700603: 16 µM
- MIC [4]; 43300: 16 µM
- MIC [5]; 27583: 16 µM
- MIC ([6]; 700221 (VRE)): 4 µM

Compound: GGHVRRFPWWWPFLRRGGC-NH2 [TRP-01]
- MIC [1]; 25922: 32 µM
- MIC ([2]; BAA747): 16 µM
- MIC [3]; 700603: 32 µM
- MIC [4]; 43300: 32 µM
- MIC [5]; 27583: 64 µM
- MIC ([6]; 700221 (VRE)): 8 µM

Compound: GGHYLGALLGPLMNLLQ-NH2 [PFQα-01]
- MIC [1]; 25922: >128 µM
- MIC ([2]; BAA747): 128 µM
- MIC [3]; 700603: >128 µM
- MIC [4]; 43300: 16 µM
- MIC [5]; 27583: >128 µM
- MIC ([6]; 700221 (VRE)): >128 µM

Compound: GILAWKWAWWAWRR-NH2 [CP10A]
- MIC [1]; 25922: 16 µM
- MIC ([2]; BAA747): 8 µM
- MIC [3]; 700603: 32 µM
- MIC [4]; 43300: 4 µM
- MIC [5]; 27583: 64 µM
- MIC ([6]; 700221 (VRE)): 8 µM

Compound: IRRIIRKIIHIIKKYG-NH2 [OV3-00]
- MIC [1]; 25922: 2 µM
- MIC ([2]; BAA747): 4 µM
- MIC [3]; 700603: 4 µM
- MIC [4]; 43300: 8 µM
- MIC [5]; 27583: 16 µM
- MIC ([6]; 700221 (VRE)): 4 µM
